According to paper PMC10029098 (Chembiochem : a European journal of chemical biology, 2022):
Where “and” joins values, the source holds several entries; their conditions need not be identical. Identical values can stand only once. Ends that are not written are not given here.

What was measured:
PD1/PDL1 interaction = PD1/PDL1 interaction (Homo sapiens, UniProt Q15116); assay: PD1 ImmunoBlocking ELISA; format: biochemical
[1] = Thermodynamic solubility measurement; format: physicochemical; conditions: potassium phosphate buffer, pH 7.4, aqueous buffer, thermodynamic from solid
PD1 = PD1 (Homo sapiens, UniProt Q15116); assay: UV/Vis-colorimetric PDL1-competitive binding kinetics assay
PD1, sequence (Q15116 25-167 limits assumed): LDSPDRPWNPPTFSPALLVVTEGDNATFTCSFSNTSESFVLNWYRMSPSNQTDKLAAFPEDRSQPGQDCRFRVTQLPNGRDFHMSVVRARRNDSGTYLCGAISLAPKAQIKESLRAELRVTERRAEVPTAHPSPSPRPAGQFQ

[2] = Far-UV CD spectroscopy, thermal denaturation; format: physicochemical; conditions: calculated at 293K from best-fitted melting curves of thermal denaturation recorded by CD; phosphate buffer 15 mM, pH 6.5; RC = random coil

PD1/PDL1 interaction, sequence (Q15116 25-167 limits assumed): as above

| Sequence | EC50 (PD1/PDL1 interaction) | solubility thermodynamic [1] [µM] | Ki (PD1) [nM] | %-Fold, hairpin folded fraction (χF) [2] [%] |
| --- | --- | --- | --- | --- |
| RWCARRDYRFDMGFDYWGWE [1c] | 3700 ± 1020 nM | 300 ± 100 | – | – |
| RWVARRDYRFDMGFDYWVWE [1e] | < 600 nM and 290 nM | 900 ± 100 | 41 | – |
| RWVARRDYRGDMGFDYWVWE [1d] | – | 3400 ± 100 | – | – |
| RWVWGGGGKKGGGGWVWE [2a] | – | 5800 ± 200 | – | 87 ± 1 |
| RWVWRRDYRFDMGFDYWVWE [2c] | – | – | – | 54 ± 1 |
| RWVWRRDYRGDMGFDYWVWE [2b] | – | 600 ± 100 | – | 81 ± 1 |
